Experiments:
[1] = test system: PBMC; assay: PBMC proliferation, BrdU incorporation; assay type: cell-based, human; conditions: for IC50: Homo sapiens, ConA-stimulated PBMC, BrdU uptake, nM ± SD, read-out: IC50 PBMC proliferation inhibition
Procedure: Blood samples were taken from healthy donors and loaded on a Ficoll density gradient to purify the PBMC population. T cells were purified by human anti-CD3 using an autoMACS instrument (Miltenyi Biotec, Bergisch-Gladbach, Germany), according to the manufacturer's instructions. The identity of T cells was confirmed by flow cytometry, as they stained positive for CD3. Cells were stimulated with ConA (10 μg/ml), ODN2006 (0.5 μg/ml; Enzo Life Sciences), or LPS (50 μg/ml; Sigma-Aldrich, Steinheim, Germany), for 72 h in the presence of the inhibitor, and their proliferation was measured in the BrdU incorporation assay as will be later described.
(§1) Cells were depleted of fetal calf serum (FCS) for 12 hours. They were then stimulated to proliferate by addition of ConA (10 μg/ml) for PBMC from healthy individuals and for Jurkat cells, FCS (10%) for HEK293 and A375 cells, PDGF (30 ng/ml) for NIH 3T3 cells, and EGF (30 ng/ml) for MDA-MB-231, Cells (1×10^5) were cultured in 96-well plates for 3 days in the presence or absence of inhibitors at the concentrations specified in the text. Each condition was tested in duplicate wells.
(§2) Proliferation was assessed by BrdU incorporation using a colorimetric ELISA kit (Roche, Germany). Subsequent to labeling with 10 μM BrdU, DNA was denatured and the cells were incubated with anti-BrdU-POD, prior to the addition of colorimetric substrate (TMB). The reaction product was quantified by measuring absorbance at 450 nm in an ELISA plate reader (ELx800 BIO-TEK Instruments Inc.).
(§3) Since we were not prejudiced towards any specific protein kinase, we used a biological assay for T cell proliferation. We tested our libraries for inhibition of proliferation of PBMC and Jurkat cells (Table 3). Cell proliferation was measured by BrdU uptake. […] PBMC cells were stimulated by a non-specific T cell mitogen, Concanavalin A (ConA). All of the compounds that were tested inhibited proliferation at micromolar or sub-micromolar concentrations.

[2] = test system: Jurkat cells; assay: Jurkat cell proliferation, BrdU incorporation; assay type: cell-based, human; conditions: for IC50: Homo sapiens, Jurkat, BrdU uptake, nM ± SD, read-out: IC50 Jurkat cells proliferation inhibition
Procedure: as §1, §2, §3

Row | melting point | IC50 [2] | fold increase in the IC50 of Jurkat cell proliferation compared with compound 2 ([2]; relative to compound 2) | SMILES | IC50 [1] | fold increase in the IC50 of PBMC proliferation compared with compound 2 ([1]; relative to compound 2)
1 | > 250 °C | 600 ± 0.14 nM |  | COc1cc(-c2nc(NCc3ccccc3)c3ccccc3n2)cc(OC)c1OC [Compound 10, N-benzyl-2-(3,4,5-trimethoxyphenyl)quinazolin-4-amine] | 3250 ± 2.47 nM | 
2 | > 250 °C | 670 ± 0.22 nM |  | Nc1ccc(CNc2nc(-c3cc(O)c(O)c(O)c3)nc3ccccc23)cc1 [Compound 30, 5-(4-(4-aminobenzylamino)quinazolin-2-yl)benzene-1,2,3-triol] | 570 ± 0.24 nM | 
3 | > 250 °C | 1970 ± 0.74 nM |  | Oc1cc(-c2nc(NCCc3c[nH]c4ccccc34)c3ccccc3n2)cc(O)c1O [Compound 36, 5-(4-(2-(1H-indol-3-yl)ethylamino)quinazolin-2-yl)benzene-1,2,3-triol] | 1240 ± 0.74 nM | 
4 | > 250 °C | 550 ± 0.21 nM |  | COc1ccc(Nc2nc(-c3cc(O)c(O)c(O)c3)nc3ccccc23)cc1 [Compound 24, 5-(4-(4-methoxyphenylamino)quinazolin-2-yl)benzene-1,2,3-triol] | 500 ± 0.14 nM | 
5 | > 250 °C | 600 ± 0.21 nM |  | Oc1cc(-c2nc(NCc3ccc(F)c(F)c3)c3ccccc3n2)cc(O)c1O [Compound 31, 5-(4-(3,4-difluorobenzylamino)quinazolin-2-yl)benzene-1,2,3-triol] | 280 ± 0.04 nM | 
6 | > 250 °C | 700 ± 0.35 nM |  | COc1cc(-c2nc(Nc3ccc4[nH]ncc4c3)c3ccccc3n2)cc(OC)c1OC [Compound 16, N-(1H-indazol-5-yl)-2-(3,4,5-trimethoxyphenyl)quinazolin-4-amine] | 600 ± 0.28 nM | 
7 | > 250 °C | 600 ± 0.14 nM |  | COc1cc(-c2nc(Nc3ccc4cn[nH]c4c3)c3ccccc3n2)cc(OC)c1OC [Compound 15, N-(1H-indazol-6-yl)-2-(3,4,5-trimethoxyphenyl) quinazolin-4-amine] | 450 ± 0.07 nM | 
8 | > 250 °C | 1500 ± 0.71 nM |  | COc1cc(-c2nc(Nc3ccc4nc[nH]c4c3)c3ccccc3n2)cc(OC)c1OC [Compound 19, N-(3H-benzoimidazol-5-yl)-2-(3,4,5-trimethoxyphenyl)quinazolin-4-amine] | 430 ± 0.11 nM | 
9 | > 250 °C | 380 ± 0.18 nM | 10 fold | COc1cc(-c2nc(Nc3ccccc3)c3ccccc3n2)cc(OC)c1OC [Compound 1, N-phenyl-2-(3,4,5-trimethoxyphenyl)quinazolin-4-amine] | 280 ± 0.04 nM | 3 fold
10 |  | 730 ± 0.39 nM |  | COc1cc(-c2nc(NCc3ccc(Cl)c(Cl)c3)c3ccccc3n2)cc(OC)c1OC [Compound 13, N-(3,4-dichlorobenzyl)-2-(3,4,5-trimethoxyphenyl)quinazolin-4-amine] | 300 ± 0.14 nM | 
11 | > 250 °C | 2570 ± 0.82 nM |  | Oc1cc(-c2nc(Nc3ccc4nc[nH]c4c3)c3ccccc3n2)cc(O)c1O [Compound 38, 5-(4-(3H-benzo[d]imidazol-5-ylamino)quinazolin-2-yl)benzene-1,2,3-triol] | 4340 ± 0.74 nM | 
12 |  | 1120 ± 0.28 nM |  | Oc1ccc(Nc2nc(-c3cc(O)c(O)c(O)c3)nc3ccccc23)cc1 [Compound 23, 5-(4-(4-hydroxyphenylamino)quinazolin-2-yl)benzene-1,2,3-triol] | 970 ± 0.84 nM | 
13 |  | 850 ± 0.07 nM |  | CCCCCCCCOc1ccc(Nc2nc(-c3cc(OC)c(OC)c(OC)c3)nc3ccccc23)cc1 [Compound 6, N-(4-(octyloxy)phenyl)-2-(3,4,5-trimethoxyphenyl)quinazolin-4-amine] | 2400 ± 2.26 nM | 
14 |  | 1100 ± 0.14 nM |  | COc1ccc(CNc2nc(-c3cc(OC)c(OC)c(OC)c3)nc3ccccc23)cc1 [Compound 14, N-(4-methoxybenzyl)-2-(3,4,5-trimethoxyphenyl)quinazolin-4-amine] | 500 ± 0.14 nM | 
15 |  | 690 ± 0.3 nM |  | Oc1cc(-c2nc(Nc3ccc4cn[nH]c4c3)c3ccccc3n2)cc(O)c1O [Compound 34, 5-(4-(1H-indazol-6-ylamino)quinazolin-2-yl)benzene-1,2,3-triol] | 500 ± 0.14 nM | 
